Measured values: PubChem BioAssay (NCI)
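Exposure lasted 48 hours, with cells grown in 96-well plates and compounds tested at five concentrations. GI50 = concentration required for 50% inhibition of growth. Definition used: TGI = concentration required for complete inhibition of growth.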

Columns and labels:
Assay in all cases: DTP human tumour cell line panel, 48 h
[1] = tested on: SK-OV-3 ovarian
[2] = tested on: DMS 114 small cell lung
[3] = tested on: SN12C renal
[4] = tested on: IGROV1 ovarian
[5] = tested on: A549 NSCLC
[6] = tested on: NCI-H23 lung
[7] = tested on: A498 renal
[8] = tested on: DLD-1 colon
[9] = tested on: K-562 leukemia
[10] = tested on: UO-31 renal
[11] = tested on: LXFL 529 NSCLC
[12] = tested on: SNB-78 CNS
[13] = tested on: SK-MEL-2 melanoma
[14] = tested on: SK-MEL-28 melanoma
[15] = tested on: SK-MEL-5 melanoma
[16] = tested on: MALME-3M melanoma
[17] = tested on: SF-268 CNS
[18] = tested on: HCT-15 colon
[19] = tested on: NCI-H460 lung
[20] = tested on: SF-295 CNS
[21] = tested on: TK-10 renal
[22] = tested on: M19-MEL melanoma
[23] = tested on: HOP-18 NSCLC
[24] = tested on: U251 CNS
[25] = tested on: COLO 205 colon
[26] = tested on: UACC-62 melanoma
[27] = tested on: SNB-75 CNS
[28] = tested on: KM20L2 colon
[29] = tested on: DMS 273 small cell lung
[30] = tested on: SW-620 colon
[31] = tested on: CAKI-1 renal
[32] = tested on: OVCAR-3 ovarian
[33] = tested on: ACHN renal
[34] = tested on: HOP-92 NSCLC
[35] = tested on: HL-60(TB) leukemia
[36] = tested on: HCC-2998 colon
[37] = tested on: KM12 colon
[38] = tested on: OVCAR-5 ovarian
[39] = tested on: EKVX NSCLC
[40] = tested on: LOX IMVI melanoma
[41] = tested on: CCRF-CEM leukemia
[42] = tested on: HOP-62 NSCLC
[43] = tested on: OVCAR-8 ovarian
[44] = tested on: MOLT-4 leukemia
[45] = tested on: SR leukemia
[46] = tested on: UACC-257 melanoma
[47] = tested on: SF-539 CNS
[48] = tested on: NCI-H522 lung
[49] = tested on: NCI-H226 lung
[50] = tested on: SNB-19 CNS
[51] = tested on: HCT-116 colon
[52] = tested on: RPMI-8226 leukemia
[53] = tested on: HT29 colon
[54] = tested on: M14 melanoma
[55] = tested on: 786-0 renal
[56] = tested on: OVCAR-4 ovarian

Question: How did the TGI [1] turn out when `Cn1cc2ccccc2c1-c1nc(F)nc(Oc2ccc3c(c2)CC[C@@H]2C3CC[C@@]3(C)C2CC[C@@H]3O)n1` (some centres not stated) was run?
Answer: 43.7 µM

Question: What about the GI50 [2] of the same compound?
Answer: 6.42 µM

Question: What about the TGI [2] of the same compound?
Answer: 22 µM

Question: And the TGI [3]?
Answer: 28.1 µM

Question: And the TGI [4]?
Answer: 15.3 µM

Question: What about the TGI [5] of the same compound?
Answer: 54.4 µM

Question: What about the TGI [6] of the same compound?
Answer: 27.6 µM

Question: What about the TGI [7] of the same compound?
Answer: 36 µM

Question: And the TGI [8]?
Answer: 14.6 µM

Question: And the TGI [9]?
Answer: > 87 µM

Question: And the TGI [10]?
Answer: 50.9 µM

Question: And the TGI [11]?
Answer: 8.89 µM

Question: And the TGI [12]?
Answer: > 61.4 µM

Question: And the TGI [13]?
Answer: 10.2 µM

Question: And the TGI [14]?
Answer: 27.1 µM

Question: What about the TGI [15] of the same compound?
Answer: 35.6 µM

Question: What about the TGI [16] of the same compound?
Answer: 35.5 µM

Question: What about the TGI [17] of the same compound?
Answer: 28.7 µM

Question: And the TGI [18]?
Answer: 12.2 µM

Question: And the TGI [19]?
Answer: 38.1 µM

Question: And the TGI [20]?
Answer: 63.5 µM

Question: And the TGI [21]?
Answer: 18.3 µM

Question: What about the TGI [22] of the same compound?
Answer: > 56.5 µM

Question: What about the TGI [23] of the same compound?
Answer: 34.2 µM

Question: What about the TGI [24] of the same compound?
Answer: 13.2 µM

Question: What about the TGI [25] of the same compound?
Answer: 41.8 µM

Question: And the TGI [26]?
Answer: 32.7 µM

Question: What about the TGI [27] of the same compound?
Answer: 39.2 µM

Question: What about the TGI [28] of the same compound?
Answer: 36.6 µM

Question: And the TGI [29]?
Answer: > 58.5 µM

Question: And the TGI [30]?
Answer: 17.6 µM

Question: What about the TGI [31] of the same compound?
Answer: 16.3 µM

Question: What about the TGI [32] of the same compound?
Answer: 21.8 µM

Question: What about the TGI [33] of the same compound?
Answer: 35.4 µM

Question: And the TGI [34]?
Answer: 14.7 µM

Question: What about the TGI [35] of the same compound?
Answer: 21 µM

Question: What about the TGI [36] of the same compound?
Answer: 33.5 µM

Question: And the TGI [37]?
Answer: 19.5 µM

Question: What about the TGI [38] of the same compound?
Answer: 33.9 µM

Question: What about the TGI [39] of the same compound?
Answer: 37.3 µM

Question: What about the TGI [40] of the same compound?
Answer: 32.6 µM

Question: And the TGI [41]?
Answer: > 100 µM

Question: What about the TGI [42] of the same compound?
Answer: 27.9 µM

Question: And the TGI [43]?
Answer: 19.7 µM

Question: What about the TGI [44] of the same compound?
Answer: > 56.9 µM

Question: And the TGI [45]?
Answer: 21 µM

Question: And the TGI [46]?
Answer: 45.8 µM

Question: And the TGI [47]?
Answer: 29.1 µM

Question: What about the TGI [48] of the same compound?
Answer: 12.7 µM

Question: And the TGI [49]?
Answer: 38.4 µM

Question: What about the TGI [50] of the same compound?
Answer: 35.5 µM

Question: What about the TGI [51] of the same compound?
Answer: 36 µM

Question: What about the TGI [52] of the same compound?
Answer: 21.7 µM

Question: What about the TGI [53] of the same compound?
Answer: 35.8 µM

Question: What about the TGI [54] of the same compound?
Answer: 20.4 µM

Question: What about the TGI [55] of the same compound?
Answer: 26.4 µM

Question: What about the TGI [56] of the same compound?
Answer: 16.4 µM
